# Data from article PMC5201331, “Subchronic Toxicities of HZ1006, a Hydroxamate-Based Histone Deacetylase Inhibitor, in Beagle Dogs and Sprague-Dawley Rats” (International Journal of Environmental Research and Public …, 2016).
# Tested on: Beagle dogs
# Assay: Subchronic toxicity test in Beagle dogs: serum biochemistry
# Format: in vivo
# Conditions: dogs
# Description: HZ1006 was administered orally to dogs (four/sex/group) at doses of 80, 40, 20, 5 and 0 (control) mg/kg/day, and the dosage volume was 2 mL/kg. The dogs received test doses with the exact amounts on a weekly basis based on current body weights. […] The other dogs in the above groups were dissected on the planned days. For the other groups, half of the dogs were anatomized on d28 and the remaining half on d42.
# The following indexes were examined for the dogs used in the study, twice during the pre-dosage period and on d14, d28 and d42. The following parameters were evaluated on d28 and d42 for the rats in the study:
# The animal blood samples were collected in the tubes containing the coagulator and centrifuged at 500 g for 10 min; the supernatant was then collected into a new tube. The serum biochemistry indexes included the following: alanine aminotransferase (ALT), alkaline phosphatase (ALP), aspartate aminotransferase (AST), blood urea (BU), lactate dehydrogenase (LDH), total bilirubin (TBIL), creatinine (Crea), albumin (ALB), total protein (TP), triglycerides (TG), total cholesterol (TCH), γ-glutamyltranspeptidase (g-GT), glucose (GLU), creatine phosphokinase (CPK), uric acid (UA), phosphorus (P), and calcium (Ca^2+). The above parameters were analyzed using an Automatic Analyzer 7080 provided by Hitachi High-Technologies Corp. (Tokyo, Japan). An Na/K/Cl Analyzer EasyLyte PLUS from Medica Corp. (Bedford, MA, USA), was used to determine the levels of chloride (Cl^−), sodium (Na^+) and potassium (K^+) in the blood samples.
# [1] = 20 mg/kg/day oral, d42 (recovery)
# [2] = 40 mg/kg/day oral, d0 (pre-dose)
# [3] = 40 mg/kg/day oral, d42 (recovery)
# [4] = 80 mg/kg/day oral, d0 (pre-dose)
# [5] = 80 mg/kg/day oral, d42 (recovery)
smiles,measurement,setting,value
CCCCCCCNc1cc(/C=C/C(=O)NO)ccc1OCCN(CC)CC [HZ1006],ALP: Alkaline phosphatase,"20 mg/kg/day oral, d28",0.98 ± 0.27 µmol/s/L
same,ALT: Alanine aminotransferase,"20 mg/kg/day oral, d28",486 ± 90 nmol/s/L
same,AST: Aspartate aminotransferase,"20 mg/kg/day oral, d28",408 ± 57 nmol/s/L
same,BU: Blood urea,"20 mg/kg/day oral, d28",5.37 ± 1.78 mmol/L
same,CPK: Creatine phosphokinase,"20 mg/kg/day oral, d28",2.38 ± 0.53 µmol/s/L
same,CREA: Creatinine,"20 mg/kg/day oral, d28",52.1 ± 10.3 µmol/L
same,LDH: Lactate dehydrogenase,"20 mg/kg/day oral, d28",1.54 ± 0.74 µmol/s/L
same,TBIL: Total bilirubin,"20 mg/kg/day oral, d28",2.29 ± 0.31 µmol/L
same,TCH: Total cholesterol,"20 mg/kg/day oral, d28",3.95 ± 0.55 mmol/L
same,TG: Triglycerides,"20 mg/kg/day oral, d28",0.34 ± 0.05 mmol/L
same,ALP: Alkaline phosphatase,[1],1.00 ± 0.24 µmol/s/L
same,ALT: Alanine aminotransferase,[1],523 ± 148 nmol/s/L
same,AST: Aspartate aminotransferase,[1],412 ± 31 nmol/s/L
same,BU: Blood urea,[1],4.05 ± 0.37 mmol/L
same,CPK: Creatine phosphokinase,[1],2.17 ± 0.30 µmol/s/L
same,CREA: Creatinine,[1],49.6 ± 0.6 µmol/L
same,LDH: Lactate dehydrogenase,[1],2.28 ± 0.93 µmol/s/L
same,TBIL: Total bilirubin,[1],1.88 ± 0.19 µmol/L
same,TCH: Total cholesterol,[1],3.81 ± 0.18 mmol/L
same,TG: Triglycerides,[1],0.33 ± 0.12 mmol/L
same,ALP: Alkaline phosphatase,[2],1.62 ± 0.40 µmol/s/L
same,ALT: Alanine aminotransferase,[2],526 ± 179 nmol/s/L
same,AST: Aspartate aminotransferase,[2],462 ± 57 nmol/s/L
same,BU: Blood urea,[2],3.95 ± 0.48 mmol/L
same,CPK: Creatine phosphokinase,[2],3.27 ± 0.76 µmol/s/L
same,CREA: Creatinine,[2],49.2 ± 6.2 µmol/L
same,LDH: Lactate dehydrogenase,[2],3.39 ± 1.55 µmol/s/L
same,TBIL: Total bilirubin,[2],2.24 ± 0.24 µmol/L
same,TCH: Total cholesterol,[2],5.38 ± 1.95 mmol/L
same,TG: Triglycerides,[2],0.41 ± 0.10 mmol/L
same,ALP: Alkaline phosphatase,"40 mg/kg/day oral, d14",1.03 ± 0.32 µmol/s/L
same,ALT: Alanine aminotransferase,"40 mg/kg/day oral, d14",433 ± 304 nmol/s/L
same,AST: Aspartate aminotransferase,"40 mg/kg/day oral, d14",313 ± 23 nmol/s/L
same,BU: Blood urea,"40 mg/kg/day oral, d14",4.52 ± 1.05 mmol/L
same,CPK: Creatine phosphokinase,"40 mg/kg/day oral, d14",2.36 ± 0.19 µmol/s/L
same,CREA: Creatinine,"40 mg/kg/day oral, d14",52.5 ± 6.1 µmol/L
same,LDH: Lactate dehydrogenase,"40 mg/kg/day oral, d14",1.29 ± 0.68 µmol/s/L
same,TBIL: Total bilirubin,"40 mg/kg/day oral, d14",1.81 ± 0.24 µmol/L
same,TCH: Total cholesterol,"40 mg/kg/day oral, d14",4.47 ± 0.71 mmol/L
same,TG: Triglycerides,"40 mg/kg/day oral, d14",0.41 ± 0.12 mmol/L
same,ALP: Alkaline phosphatase,"40 mg/kg/day oral, d28",1.30 ± 0.24 µmol/s/L
same,ALT: Alanine aminotransferase,"40 mg/kg/day oral, d28",347 ± 78 nmol/s/L
same,AST: Aspartate aminotransferase,"40 mg/kg/day oral, d28",378 ± 71 nmol/s/L
same,BU: Blood urea,"40 mg/kg/day oral, d28",4.66 ± 0.96 mmol/L
same,CPK: Creatine phosphokinase,"40 mg/kg/day oral, d28",3.00 ± 0.94 µmol/s/L
same,CREA: Creatinine,"40 mg/kg/day oral, d28",52.6 ± 9.8 µmol/L
same,LDH: Lactate dehydrogenase,"40 mg/kg/day oral, d28",2.76 ± 2.49 µmol/s/L
same,TBIL: Total bilirubin,"40 mg/kg/day oral, d28",2.04 ± 0.43 µmol/L
same,TCH: Total cholesterol,"40 mg/kg/day oral, d28",4.66 ± 1.85 mmol/L
same,TG: Triglycerides,"40 mg/kg/day oral, d28",0.43 ± 0.18 mmol/L
same,ALP: Alkaline phosphatase,[3],1.34 ± 0.34 µmol/s/L
same,ALT: Alanine aminotransferase,[3],514 ± 112 nmol/s/L
same,AST: Aspartate aminotransferase,[3],468 ± 80 nmol/s/L
same,BU: Blood urea,[3],4.87 ± 1.56 mmol/L
same,CPK: Creatine phosphokinase,[3],3.00 ± 1.32 µmol/s/L
same,CREA: Creatinine,[3],58.8 ± 2.0 µmol/L
same,LDH: Lactate dehydrogenase,[3],3.50 ± 2.49 µmol/s/L
same,TBIL: Total bilirubin,[3],1.88 ± 0.08 µmol/L
same,TCH: Total cholesterol,[3],4.55 ± 1.10 mmol/L
same,TG: Triglycerides,[3],0.45 ± 0.04 mmol/L
same,ALP: Alkaline phosphatase,[4],1.62 ± 0.49 µmol/s/L
same,ALT: Alanine aminotransferase,[4],591 ± 143 nmol/s/L
same,AST: Aspartate aminotransferase,[4],493 ± 103 nmol/s/L
same,BU: Blood urea,[4],4.38 ± 0.72 mmol/L
same,CPK: Creatine phosphokinase,[4],3.24 ± 0.77 µmol/s/L
same,CREA: Creatinine,[4],53.4 ± 5.2 µmol/L
same,LDH: Lactate dehydrogenase,[4],2.71 ± 0.97 µmol/s/L
same,TBIL: Total bilirubin,[4],2.64 ± 0.41 µmol/L
same,TCH: Total cholesterol,[4],4.03 ± 1.04 mmol/L
same,TG: Triglycerides,[4],0.38 ± 0.15 mmol/L
same,ALP: Alkaline phosphatase,"80 mg/kg/day oral, d14",1.27 ± 1.15 µmol/s/L
same,ALT: Alanine aminotransferase,"80 mg/kg/day oral, d14",312 ± 38 nmol/s/L
same,AST: Aspartate aminotransferase,"80 mg/kg/day oral, d14",386 ± 104 nmol/s/L
same,BU: Blood urea,"80 mg/kg/day oral, d14",4.66 ± 0.93 mmol/L
same,CPK: Creatine phosphokinase,"80 mg/kg/day oral, d14",3.29 ± 1.86 µmol/s/L
same,CREA: Creatinine,"80 mg/kg/day oral, d14",58.2 ± 4.8 µmol/L
same,LDH: Lactate dehydrogenase,"80 mg/kg/day oral, d14",1.76 ± 1.85 µmol/s/L
same,TBIL: Total bilirubin,"80 mg/kg/day oral, d14",2.74 ± 2.93 µmol/L
same,TCH: Total cholesterol,"80 mg/kg/day oral, d14",4.62 ± 2.51 mmol/L
same,TG: Triglycerides,"80 mg/kg/day oral, d14",0.56 ± 0.28 mmol/L
same,ALP: Alkaline phosphatase,"80 mg/kg/day oral, d28",1.01 ± 0.27 µmol/s/L
same,ALT: Alanine aminotransferase,"80 mg/kg/day oral, d28",307 ± 51 nmol/s/L
same,AST: Aspartate aminotransferase,"80 mg/kg/day oral, d28",310 ± 59 nmol/s/L
same,BU: Blood urea,"80 mg/kg/day oral, d28",5.25 ± 1.21 mmol/L
same,CPK: Creatine phosphokinase,"80 mg/kg/day oral, d28",1.73 ± 0.24 µmol/s/L
same,CREA: Creatinine,"80 mg/kg/day oral, d28",54.3 ± 8.9 µmol/L
same,LDH: Lactate dehydrogenase,"80 mg/kg/day oral, d28",0.97 ± 0.30 µmol/s/L
same,TBIL: Total bilirubin,"80 mg/kg/day oral, d28",2.19 ± 0.20 µmol/L
same,TCH: Total cholesterol,"80 mg/kg/day oral, d28",4.16 ± 1.39 mmol/L
same,TG: Triglycerides,"80 mg/kg/day oral, d28",0.45 ± 0.11 mmol/L
same,ALP: Alkaline phosphatase,[5],0.99 ± 0.14 µmol/s/L
same,ALT: Alanine aminotransferase,[5],549 ± 181 nmol/s/L
same,AST: Aspartate aminotransferase,[5],460 ± 83 nmol/s/L
same,BU: Blood urea,[5],4.93 ± 0.50 mmol/L
same,CPK: Creatine phosphokinase,[5],2.86 ± 0.53 µmol/s/L
same,CREA: Creatinine,[5],65.9 ± 11.3 µmol/L
same,TBIL: Total bilirubin,[5],1.90 ± 0.23 µmol/L
same,TCH: Total cholesterol,[5],3.52 ± 0.84 mmol/L
same,TG: Triglycerides,[5],0.40 ± 0.14 mmol/L
